# According to patent publication US20220023294A1, “SYNTHETIC LETHALITY AND THE TREATMENT OF CANCER” (PACYLEX PHARMACEUTICALS INC., priority 2011, published 2022):
# Experiments:
# Ramos B lymphoma cells = experiment: Survival of Ramos cells transfected with pcDNA3.1-V5-NMT2 in the presence of TrisDBA (trypan blue exclusion); type: cell-based, human; settings: TrisDBA 5 ug/ml, 24 hours
# Description: B cells were transfected using the Neon® transfection system (Life technologies) following manufacturer's instructions and optimized protocol for Ramos B cells transfection (pulse voltage 1,300V; pulse width 20 ms, 2 pulses and 7.7.10^6 cells/mL) adapted for 100 μL tips. Classically, two transfections were pulled to obtained enough living cells to perform a viability assay.
# (§1) B and T cell viability was measured using the trypan blue exclusion method. Cells were grown in confluency conditions (2×10^6 cells/mL maximum) assuring the minimum basal apoptosis. After incubation with NMT inhibitors, about 20 000 cells (10 μL) were incubated with 10 μL of TC10™ Trypan Blue Dye (Biorad) for 15 min. Cell viability was quantified using the TC10™ automated cell counter (Biorad).
# In this example, transfection of Ramos B lymphoma cells (which, as shown herein, expresses NMT1) with pcDNA3.1-V5-NMT2 increased survival to TrisDBA (5 ug/ml) 2.5 fold vs control cells transfected with empty plasmid vector. In FIG. 6, 20×10^6 Ramos B lymphoma cells were transfected with 32 μg of DNA (pcDNA3.1-V5-empty or pcDNA3.1-V5-NMT2) using the Neon Transfection System (Invitrogen) following the recommended protocol for Ramos cell line (1,350 Volt, 30 ms). […] After a PBS wash, cells were resuspended and grown in RPMI containing TrisDBA (5 ug/ml) for 24 hours then counted using the trypan blue exclusion method (Panel A). […]
# [1] = system: B cell lymphomas and T cell leukemias; experiment: Cell viability assay (trypan blue exclusion) after incubation with NMT inhibitors; type: cell-based, human; settings: 24 h, increasing concentration, control adjusted to 100%
# Description: Tris dibutylbenzinylidene acetone paladium (TrisDBA) was a kind gift of Dr. Arbiser. Cells were incubated at increasing concentrations for 24 hours with TrisDBA (or DMSO for control) or for 24 and 48 hours with DDD85646.
# as §1
# FIG. 2 depicts the sensitivity of various B cell lymphomas and T cell leukemias to the NMT inhibitors tris-dibenzylideneacetone-dipalladium (Tris-DBA). Various B and T cells were incubated for 24 h with increasing concentration of Tris DBA. Cell viability was measured using trypan blue exclusion method and adjusted to 100% for control.
# NMT2 = molecular target: T1, NMT2 (Homo sapiens, UniProt O60551); experiment: In vitro NMT activity (peptide myristoylation) assay with purified recombinant enzyme; type: biochemical; settings: purified recombinant NMT2, radiolabeled myristoyl peptide on phosphocellulose paper
# T1 construct: His (N); made in house
# T1 sequence (O60551 1-498): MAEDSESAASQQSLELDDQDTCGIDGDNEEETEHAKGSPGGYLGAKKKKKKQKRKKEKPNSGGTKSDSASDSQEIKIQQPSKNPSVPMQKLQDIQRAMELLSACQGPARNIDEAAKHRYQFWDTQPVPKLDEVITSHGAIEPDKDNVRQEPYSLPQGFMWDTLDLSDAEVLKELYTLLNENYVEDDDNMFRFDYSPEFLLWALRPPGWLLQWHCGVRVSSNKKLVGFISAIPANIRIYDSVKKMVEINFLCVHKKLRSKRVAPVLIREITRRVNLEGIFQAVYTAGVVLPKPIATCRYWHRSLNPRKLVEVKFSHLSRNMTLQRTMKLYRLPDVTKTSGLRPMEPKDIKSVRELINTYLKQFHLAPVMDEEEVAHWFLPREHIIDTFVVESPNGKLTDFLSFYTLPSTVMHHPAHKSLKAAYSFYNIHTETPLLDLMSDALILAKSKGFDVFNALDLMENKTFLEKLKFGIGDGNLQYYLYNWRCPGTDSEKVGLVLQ
# Text: (§2) N-myristoyltransferase activity assay protocol was adapted from Raju, R. V., and Sharma, R. K. (1999) Preparation and assay of myristoyl-CoA:protein N-myristoyltransferase. Methods Mol Biol 116, 193-211. [^3H] myristoyl-CoA was freshly synthesized for each experiment, as previously described by Towler, D., and Glaser, L. (1986) Protein fatty acid acylation: enzymatic synthesis of an N-myristoylglycyl peptide. Proc Nal Acad Sci USA 83, 2812-2816. Briefly, cells were resuspended in 0.25 M sucrose buffer (50 mM NaH2PO4, pH 7.4) and subjected to 2 rounds of sonication at level 6.0 on a Branson Sonicator. […] Discs were washed (washing buffer: 25 mM Tris buffer, pH 7.4) to remove the residual radioactivity ([^3H]-myristate and [^3H]-myristoyl-CoA) while [^3H]-myristoyl-peptide is retained on the phosphocellulose paper. Radioactivity was quantified by liquid scintillation counting and converted into pMol of myristoylated peptide (Raju, R. V., and Sharna, R. K. (1999) Preparation and assay of myristoyl-CoA:protein N-myristoyltransferase. Methods Mol Biol 116, 193-211
# (§3) NMT activity was assayed using a peptide myristoylation assay with purified recombinant NMT1 and NMT2. NMT activity was calculated from the amount of radiolabeled myristoyl peptide produced and detected on phosphocellulose paper (adapted from King et al. 1991, Anal Biochem.).
# NMT1 = molecular target: T2, NMT1 (Homo sapiens, UniProt P30419); experiment: as above; type: biochemical; settings: purified recombinant NMT1, radiolabeled myristoyl peptide on phosphocellulose paper
# T2 construct: His (N); made in house
# T2 sequence (P30419 1-496): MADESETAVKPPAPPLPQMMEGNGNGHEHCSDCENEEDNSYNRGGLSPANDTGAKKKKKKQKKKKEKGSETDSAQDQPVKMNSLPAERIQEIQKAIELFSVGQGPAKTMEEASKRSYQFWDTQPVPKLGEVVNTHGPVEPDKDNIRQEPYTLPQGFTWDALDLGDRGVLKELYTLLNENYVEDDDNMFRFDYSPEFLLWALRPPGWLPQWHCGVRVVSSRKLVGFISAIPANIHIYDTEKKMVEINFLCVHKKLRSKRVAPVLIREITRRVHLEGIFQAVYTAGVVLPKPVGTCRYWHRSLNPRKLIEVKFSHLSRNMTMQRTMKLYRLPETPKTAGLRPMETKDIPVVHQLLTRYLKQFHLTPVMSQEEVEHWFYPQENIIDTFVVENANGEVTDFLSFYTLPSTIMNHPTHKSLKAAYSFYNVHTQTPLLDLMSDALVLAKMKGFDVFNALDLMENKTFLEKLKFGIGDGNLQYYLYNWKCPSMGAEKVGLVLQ
# Text: as §2, §3
substance,measurement,setting,value
tris-dibenzylideneacetone-dipalladium [Tris-DBA],Increased survival of NMT2-transfected cells vs control cells transfected with empty plasmid vector,Ramos B lymphoma cells,2.5 fold
same,Cell survival curves (sensitivity of B cell lymphomas versus other cells),[1],more sensitive
same,Inhibition of NMT activity,NMT2,inhibits NMT in vitro
same,Inhibition of NMT activity,NMT1,inhibits NMT in vitro
